Experimental data published in patent US20150362508A1, “EFFECTOR T CELL RSISTANCE” (BENAROYA RESEARCH INSTITUTE AT VIRGINIA MASON, priority 2013, published 2015).

Test system: CD4+CD25− T cells (Teff)
Assay: CFSE-based polyclonal suppression assay (aTreg:Teff co-culture 1:4, anti-CD3/anti-CD28 beads)
Assay type: cell-based, human
Conditions: for percent inhibition (Treg-mediated suppression of Teff proliferation): presence vs absence of STAT3 inhibitor, 200 ng/ml for one hour
Procedure: The level of Teff suppression was measured using an in vitro assay in which the CD4^+CD25^− T cells of patients with RRMS were co-cultured with in vitro generated Treg from healthy subjects at a Treg to Teff ratio of 1:4 in the presence of anti-CD3/anti-CD28 coated beads and where proliferation is measured using CFSE.
FIGS. 5A, 5B, and 5C relate to a gating strategy for calculation of percent inhibition in a suppression assay and a cytometric analysis of phosphorylated STAT3 and IL-6Rα surface expression. Referring to FIG. 5A, FACS analysis was performed on day 4 by gating on live cells and excluding the CFSE low population (unstained Treg) to determine the percent of the responder cells that have diluted CFSE. The percent inhibition was determined by comparing the percent of proliferating Teff cells cultured alone to the percent of proliferating Teff cells in co-culture with in vitro generated Treg at a ratio 1:4 (Treg:responder cells).
IL-6 mediated Teff resistance can be reversed through the use of a STAT3 inhibitor (Goodman, W. A., et al., J. Immunol. 186(6), 3336-3345 (2011)). […] Suppression assays were performed in the presence of the STAT3 inhibitor using the same source of control Treg for RRMS and control Teff cells. In FIG. 2D, the percent inhibition for controls (n=3) and RRMS (n=3) subjects in the presence or absence of a STAT3 inhibitor, STATTIC V, was compared using a paired Student t-test.
To determine whether IL-6R mediated signaling could alter suppression in the assay system, Teff were cultured from healthy subjects in the presence or absence of IL-6 in the in vitro co-culture system and assessed percent inhibition on day 4. […] Referring to FIG. 11, CFSE-labeled CD4^+CD25^− T cells were cultured at a ratio of 1:4 (control aTreg:control Teff) either in the absence or presence of 50 ng/ml IL-6 and activated with anti-CD3/anti-CD28 coated beads. FACS analysis was performed to determine percent inhibition on day 4 and data is represented by using a paired analysis (Correlation coefficient (r) 0.8934).
CD4^+CD25^− responder cells were isolated as described above via negative selection using Miltenyi microbeads. Allogeneic CD4^+CD25^− T cells were carboxyfluorescein succinimidyl ester (CFSE)-labelled and cultured at a ratio of 1:4 with aTregs and Dynabeads® (M-450 CD3/CD28 T, Dynal Biotech A.S.A./Life Technologies Corporation, Grand Island, N.Y.) at a ratio of 1:5 (beads:responder cells) as described previously (Schneider, A., and Buckner, J. H., Methods Mol. Biol. 707, 233-241 (2011)). […] Data was acquired using CellQuest™ Pro software (BD Bioscience) and analyzed by FlowJo (Tree Star).

Row | Molecule | suppression by Treg (percent inhibition) (control aTreg:control Teff 1:4, absence vs presence of 50 ng/ml IL-6, day 4, p=0.02, FIG. 11) | proliferation of Teff (cultures with Teff alone, healthy subjects, absence vs presence of 50 ng/ml IL-6) | percent inhibition (Treg-mediated suppression of Teff proliferation) (RRMS subjects' Teff (n=3), day 4, p<0.01, FIG. 2D) | percent inhibition (Treg-mediated suppression of Teff proliferation) (control subjects' Teff (n=3), day 4, FIG. 2D)
1 | IL-6: recombinant human IL-6 from BD Pharmingen, pro-inflammatory cytokine | significantly decreased | unaffected |  | 
2 | O=[N+]([O-])c1ccc2c(c1)S(=O)(=O)C=C2 [STATTIC V] |  |  | more marked increase in suppression | enhanced suppression
